{
  "source": "patent US20220096487A1",
  "about": "(priority 2019, published 2022)",
  "key": {"[1]": {"test": "Hypersensitivity reactions in Phase 3 clinical trials of dolutegravir", "type": "in vivo, human", "details": "subjects receiving dolutegravir in Phase 3 clinical trials", "excerpt": "Discontinue the combination immediately if signs or symptoms of hypersensitivity reactions develop (including, but not limited to, severe rash or rash accompanied by fever, general malaise, fatigue, muscle or joint aches, blisters or peeling of the skin, oral blisters or lesions, conjunctivitis, facial edema, hepatitis, eosinophilia, angioedema, difficulty breathing). Clinical status, including liver aminotransferases, should be monitored and appropriate therapy initiated."}, "[2]": {"test": "Established and other potentially significant drug interactions for dolutegravir (Table 5)", "type": "in vivo, human", "excerpt": "These recommendations are based on either drug interaction trials or predicted interactions due to the expected magnitude of interaction and potential for serious adverse events or loss of efficacy [see Contraindications (4), Clinical Pharmacology (12.3)]."}, "[3]": {"test": "Dolutegravir embryo-fetal development study in pregnant rats", "type": "in vivo, rat", "details": "oral up to 1,000 mg/kg daily, gestation Days 6 to 17"}, "[4]": {"test": "Dolutegravir embryo-fetal development study in pregnant rabbits", "type": "in vivo, rabbit", "details": "oral up to 1,000 mg/kg daily, gestation Days 6 to 18"}, "[5]": {"test": "Pharmacokinetic properties of the components (Table 6)", "type": "in vivo, human", "details": "in vivo"}, "[6]": {"test": "Plasma protein binding in vitro", "type": "in vitro ADME", "details": "human, human plasma proteins, read-out: % Bound to human plasma proteins (converted)"}, "[7]": {"test": "Single-dose mass balance study of [14C] dolutegravir", "type": "in vivo, human"}, "[8]": {"test": "Multiple-dose pharmacokinetic properties (Table 7)", "type": "in vivo, human", "details": "population PK, ART treatment-naive adults, 50 mg dolutegravir once daily"}, "CYP2A6": {"molecular_target": "CYP2A6 (Homo sapiens, UniProt P11509)", "test": "In vitro inhibition of CYP2A6", "type": "in vitro ADME", "details": "did not inhibit"}, "CYP2C8": {"molecular_target": "CYP2C8 (Homo sapiens, UniProt P10632)", "sequence (P10632 whole entry)": "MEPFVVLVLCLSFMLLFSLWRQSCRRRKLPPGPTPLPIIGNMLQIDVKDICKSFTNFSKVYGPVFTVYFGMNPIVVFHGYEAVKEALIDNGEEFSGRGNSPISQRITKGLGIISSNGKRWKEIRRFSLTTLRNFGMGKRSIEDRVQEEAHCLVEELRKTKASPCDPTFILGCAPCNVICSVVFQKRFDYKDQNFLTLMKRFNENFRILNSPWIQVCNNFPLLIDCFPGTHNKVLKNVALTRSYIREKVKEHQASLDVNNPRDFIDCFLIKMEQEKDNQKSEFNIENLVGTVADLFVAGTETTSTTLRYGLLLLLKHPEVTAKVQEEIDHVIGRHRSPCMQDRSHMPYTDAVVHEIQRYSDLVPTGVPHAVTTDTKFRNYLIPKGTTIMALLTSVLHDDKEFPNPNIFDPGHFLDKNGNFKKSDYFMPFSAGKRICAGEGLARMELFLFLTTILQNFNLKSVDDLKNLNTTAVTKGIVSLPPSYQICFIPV", "test": "In vitro inhibition of CYP2C8", "type": "in vitro ADME", "details": "did not inhibit"}, "CYP2C19": {"molecular_target": "CYP2C19 (Homo sapiens, UniProt P33261)", "sequence (P33261 whole entry)": "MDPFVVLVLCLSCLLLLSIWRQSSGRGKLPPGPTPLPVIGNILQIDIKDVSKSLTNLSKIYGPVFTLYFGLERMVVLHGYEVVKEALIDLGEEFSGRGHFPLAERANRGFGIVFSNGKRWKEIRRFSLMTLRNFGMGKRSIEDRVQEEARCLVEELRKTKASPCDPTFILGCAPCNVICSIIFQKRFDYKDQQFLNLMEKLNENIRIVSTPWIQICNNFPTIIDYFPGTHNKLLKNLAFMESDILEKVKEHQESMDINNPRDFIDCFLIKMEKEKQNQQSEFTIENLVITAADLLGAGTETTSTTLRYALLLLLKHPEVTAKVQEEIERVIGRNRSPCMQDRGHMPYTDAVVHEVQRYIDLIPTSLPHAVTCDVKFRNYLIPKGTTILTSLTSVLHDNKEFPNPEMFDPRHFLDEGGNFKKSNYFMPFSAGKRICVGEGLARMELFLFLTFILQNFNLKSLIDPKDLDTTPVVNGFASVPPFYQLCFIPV", "test": "In vitro inhibition of CYP2C19", "type": "in vitro ADME", "details": "did not inhibit"}, "CYP2D6": {"molecular_target": "CYP2D6 (Homo sapiens, UniProt P10635)", "test": "In vitro inhibition of CYP2D6", "type": "in vitro ADME", "details": "did not inhibit"}, "CYP3A": {"system": "CYP3A", "test": "In vitro inhibition of CYP3A", "type": "in vitro ADME", "details": "human, did not inhibit"}, "UGT1A1": {"molecular_target": "UGT1A1 (Homo sapiens, UniProt P22309)", "test": "In vitro inhibition of UGT1A1", "type": "in vitro ADME", "details": "did not inhibit"}, "P-gp [9]": {"molecular_target": "T1, P-gp (Homo sapiens, UniProt P08183)", "T1 sequence (P08183 whole entry)": "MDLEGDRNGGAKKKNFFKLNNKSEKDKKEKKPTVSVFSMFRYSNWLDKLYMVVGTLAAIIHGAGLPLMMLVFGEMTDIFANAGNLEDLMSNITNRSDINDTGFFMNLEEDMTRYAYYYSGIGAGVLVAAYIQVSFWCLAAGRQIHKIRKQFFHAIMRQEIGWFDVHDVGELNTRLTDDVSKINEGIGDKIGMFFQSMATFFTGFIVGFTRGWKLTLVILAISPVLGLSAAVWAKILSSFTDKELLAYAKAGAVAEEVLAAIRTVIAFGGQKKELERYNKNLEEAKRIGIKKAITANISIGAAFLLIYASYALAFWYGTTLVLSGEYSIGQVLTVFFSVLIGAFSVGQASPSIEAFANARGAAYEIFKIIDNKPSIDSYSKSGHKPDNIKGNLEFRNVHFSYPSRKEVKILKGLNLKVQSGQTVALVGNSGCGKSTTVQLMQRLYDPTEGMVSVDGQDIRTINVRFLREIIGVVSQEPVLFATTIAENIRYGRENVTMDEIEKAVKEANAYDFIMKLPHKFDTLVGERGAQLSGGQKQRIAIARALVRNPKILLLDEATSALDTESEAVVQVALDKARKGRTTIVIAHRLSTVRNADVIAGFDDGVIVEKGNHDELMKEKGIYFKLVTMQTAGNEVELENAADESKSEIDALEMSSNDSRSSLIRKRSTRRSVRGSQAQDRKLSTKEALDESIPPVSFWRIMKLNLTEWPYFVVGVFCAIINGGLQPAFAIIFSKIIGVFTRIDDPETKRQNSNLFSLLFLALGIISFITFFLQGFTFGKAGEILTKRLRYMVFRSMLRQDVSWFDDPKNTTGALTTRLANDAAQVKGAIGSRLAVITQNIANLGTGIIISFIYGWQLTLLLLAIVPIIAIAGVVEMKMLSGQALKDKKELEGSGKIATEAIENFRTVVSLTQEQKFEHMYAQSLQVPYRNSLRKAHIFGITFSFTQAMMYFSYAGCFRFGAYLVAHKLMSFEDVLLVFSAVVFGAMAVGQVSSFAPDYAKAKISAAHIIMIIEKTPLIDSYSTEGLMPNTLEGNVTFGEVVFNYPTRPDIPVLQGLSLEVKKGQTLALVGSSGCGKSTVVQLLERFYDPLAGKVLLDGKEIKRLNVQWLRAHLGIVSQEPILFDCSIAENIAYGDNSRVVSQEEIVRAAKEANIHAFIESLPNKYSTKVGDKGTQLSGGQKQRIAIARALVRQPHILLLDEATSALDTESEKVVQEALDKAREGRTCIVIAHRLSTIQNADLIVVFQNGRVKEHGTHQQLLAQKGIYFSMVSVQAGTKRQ", "test": "In vitro inhibition of P-gp", "type": "in vitro ADME", "details": "did not inhibit"}, "OCT1": {"molecular_target": "OCT1 (Homo sapiens, UniProt O15245)", "sequence (O15245 whole entry)": "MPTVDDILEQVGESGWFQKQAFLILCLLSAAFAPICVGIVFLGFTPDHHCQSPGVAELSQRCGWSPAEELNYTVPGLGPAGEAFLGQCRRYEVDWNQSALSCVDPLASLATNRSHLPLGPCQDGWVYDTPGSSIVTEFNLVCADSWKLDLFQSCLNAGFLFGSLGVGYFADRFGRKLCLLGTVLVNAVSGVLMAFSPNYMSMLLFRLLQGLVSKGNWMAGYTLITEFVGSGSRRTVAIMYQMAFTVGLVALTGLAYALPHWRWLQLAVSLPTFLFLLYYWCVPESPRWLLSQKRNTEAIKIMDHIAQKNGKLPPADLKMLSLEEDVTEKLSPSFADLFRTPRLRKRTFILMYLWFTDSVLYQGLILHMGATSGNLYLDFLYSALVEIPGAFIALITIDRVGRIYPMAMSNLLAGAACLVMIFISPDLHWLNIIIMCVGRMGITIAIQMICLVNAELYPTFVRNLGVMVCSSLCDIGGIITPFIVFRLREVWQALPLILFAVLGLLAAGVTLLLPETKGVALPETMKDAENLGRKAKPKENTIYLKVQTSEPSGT", "test": "In vitro inhibition of OCT1", "type": "in vitro ADME", "details": "did not inhibit"}, "[10]": {"molecular_target": "multidrug resistance protein (MRP)2 (Homo sapiens, UniProt Q92887)", "test": "In vitro inhibition of MRP2", "type": "in vitro ADME", "details": "did not inhibit"}, "CYP3A4": {"system": "CYP3A4", "test": "In vitro induction of CYP3A4", "type": "in vitro ADME"}, "renal OCT2": {"molecular_target": "renal OCT2 (Homo sapiens, UniProt O15244)", "sequence (O15244 whole entry)": "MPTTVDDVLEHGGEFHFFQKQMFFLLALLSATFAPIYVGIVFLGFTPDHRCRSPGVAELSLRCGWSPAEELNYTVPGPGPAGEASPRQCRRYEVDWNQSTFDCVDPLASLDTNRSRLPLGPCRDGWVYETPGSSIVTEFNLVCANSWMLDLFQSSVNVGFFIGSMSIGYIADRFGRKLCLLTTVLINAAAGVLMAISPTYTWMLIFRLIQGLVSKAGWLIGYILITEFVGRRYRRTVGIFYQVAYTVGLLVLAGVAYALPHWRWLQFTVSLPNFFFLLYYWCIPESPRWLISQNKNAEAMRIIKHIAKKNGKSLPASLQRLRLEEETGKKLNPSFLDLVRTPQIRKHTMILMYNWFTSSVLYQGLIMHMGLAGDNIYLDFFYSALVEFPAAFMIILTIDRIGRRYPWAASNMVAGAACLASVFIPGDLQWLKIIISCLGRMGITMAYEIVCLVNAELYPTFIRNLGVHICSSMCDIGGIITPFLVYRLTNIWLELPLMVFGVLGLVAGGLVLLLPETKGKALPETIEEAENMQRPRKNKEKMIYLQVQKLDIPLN", "test": "In vitro inhibition of renal OCT2", "type": "in vitro ADME"}, "OAT3": {"molecular_target": "OAT3 (Homo sapiens, UniProt Q8TCC7)", "test": "In vitro inhibition of OAT3", "type": "in vitro ADME"}, "OAT1 and OAT3": {"system": "OAT1 and OAT3", "test": "In vivo effect on OAT1 and OAT3 substrates"}, "UGT1A3": {"molecular_target": "UGT1A3 (Homo sapiens, UniProt P35503)", "sequence (P35503 29-534)": "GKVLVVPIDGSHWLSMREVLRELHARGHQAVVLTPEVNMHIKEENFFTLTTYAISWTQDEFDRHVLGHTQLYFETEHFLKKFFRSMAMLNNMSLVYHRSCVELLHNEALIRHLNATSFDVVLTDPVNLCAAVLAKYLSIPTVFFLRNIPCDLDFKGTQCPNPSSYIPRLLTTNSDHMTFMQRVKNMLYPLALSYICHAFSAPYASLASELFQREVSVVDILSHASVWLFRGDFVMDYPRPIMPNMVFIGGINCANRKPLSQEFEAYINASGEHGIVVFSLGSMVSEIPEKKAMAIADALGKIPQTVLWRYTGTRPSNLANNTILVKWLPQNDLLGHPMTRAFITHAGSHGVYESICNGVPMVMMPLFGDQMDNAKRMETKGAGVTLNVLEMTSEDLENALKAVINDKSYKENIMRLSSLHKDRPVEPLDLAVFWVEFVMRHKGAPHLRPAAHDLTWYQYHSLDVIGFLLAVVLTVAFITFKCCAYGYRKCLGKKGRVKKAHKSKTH", "test": "In vitro substrate assessment, UGT1A3", "type": "in vitro ADME"}, "P-gp [11]": {"molecular_target": "T1, P-gp", "test": "In vitro substrate assessment, P-gp", "type": "in vitro ADME"}, "OATP1B3": {"molecular_target": "OATP1B3 (Homo sapiens, UniProt Q9NPD5)", "sequence (Q9NPD5 whole entry)": "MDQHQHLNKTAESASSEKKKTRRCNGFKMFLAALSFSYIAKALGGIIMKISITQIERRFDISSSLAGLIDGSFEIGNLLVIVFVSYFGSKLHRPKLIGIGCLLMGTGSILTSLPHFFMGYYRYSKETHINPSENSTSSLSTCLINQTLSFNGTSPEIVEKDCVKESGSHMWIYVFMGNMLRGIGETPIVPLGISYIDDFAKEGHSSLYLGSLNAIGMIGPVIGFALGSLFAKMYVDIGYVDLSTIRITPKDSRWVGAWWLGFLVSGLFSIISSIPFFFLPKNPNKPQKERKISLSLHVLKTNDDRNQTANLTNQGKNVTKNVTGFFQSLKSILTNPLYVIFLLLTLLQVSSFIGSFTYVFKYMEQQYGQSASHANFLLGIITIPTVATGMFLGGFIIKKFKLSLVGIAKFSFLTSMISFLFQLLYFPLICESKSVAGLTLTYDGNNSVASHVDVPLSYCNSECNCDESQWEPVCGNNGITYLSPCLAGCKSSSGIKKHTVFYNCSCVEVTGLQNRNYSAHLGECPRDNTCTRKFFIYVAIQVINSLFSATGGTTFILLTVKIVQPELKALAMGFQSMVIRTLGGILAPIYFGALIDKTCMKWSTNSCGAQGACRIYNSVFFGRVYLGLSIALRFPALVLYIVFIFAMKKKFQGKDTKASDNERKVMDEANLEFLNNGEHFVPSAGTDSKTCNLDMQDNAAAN", "test": "In vitro substrate assessment, OATP1B3", "type": "in vitro ADME"}, "[12]": {"system": "HIV-1 clinical isolates (group M clades A-G, group O)", "test": "Antiviral activity in cell culture against panel of HIV-1 clinical isolates", "type": "cell-based", "details": "Human immunodeficiency virus 1; 3 in each group of M [clades A-G], and 3 in group O"}, "HIV-2 clinical isolates": {"system": "HIV-2 clinical isolates", "test": "Dolutegravir PBMC assays against HIV-2 clinical isolates", "type": "cell-based", "details": "Human immunodeficiency virus 2, three HIV-2 clinical isolates"}},
  "note": "pEC50, pIC50: −log10 of the molar value. “Also recorded” adds a separate entry of the source. Marks after values point to notes of the source that are not given here.",
  "data": [
    {"smiles": "C[C@@H]1CCO[C@H]2Cn3cc(C(=O)NCc4ccc(F)cc4F)c(=O)c(O)c3C(=O)N12", "note": "[Dolutegravir, dolutegravir]", "values": [
      {"measurement": "Hypersensitivity reactions, % of subjects", "setting": "[1]", "result": "< 1", "unit": "%"},
      {"measurement": "Effect on Concentration of dolutegravir", "setting": "[2]; concomitant Carbamazepine", "result": "↓Dolutegravir"},
      {"measurement": "Effect on Concentration of dolutegravir", "setting": "[2]; concomitant Oxcarbazepine, Phenytoin, Phenobarbital, trial or predicted interaction", "result": "↓Dolutegravir"},
      {"measurement": "Effect on Concentration of dolutegravir", "setting": "[2]; concomitant Rifampin", "result": "↓Dolutegravir"},
      {"measurement": "Effect on Concentration of dolutegravir", "setting": "[2]; concomitant St. John's wort (Hypericum perforatum), trial or predicted interaction", "result": "↓Dolutegravir"},
      {"measurement": "Effect on Concentration of dolutegravir", "setting": "[2]; concomitant medications containing polyvalent cations (antacids, laxatives, sucralfate, buffered medications)", "result": "↓Dolutegravir"},
      {"measurement": "Effect on Concentration of dolutegravir", "setting": "[2]; concomitant oral calcium and iron supplements, including multivitamins", "result": "↓Dolutegravir"},
      {"measurement": "Effects on embryo-fetal development", "setting": "[3]", "result": "No adverse effects"},
      {"measurement": "Effects on embryo-fetal development", "setting": "[4]", "result": "No adverse effects"},
      {"measurement": "half-life", "setting": "[5]; human", "result": "~14", "unit": "h"},
      {"measurement": "Major route of elimination", "setting": "[5]", "result": "Metabolism"},
      {"measurement": "Metabolic pathways", "setting": "[5]", "result": "UGT1A1; also recorded: CYP3A (minor)"},
      {"measurement": "Tmax, median", "setting": "[5]", "result": 2.5, "unit": "h"},
      {"measurement": "fraction unbound", "setting": "[6]", "result": "~0.01"},
      {"measurement": "% of dose excreted as total 14C in feces", "setting": "[7]; single dose", "result": 64, "unit": "%"},
      {"measurement": "% of dose excreted as total 14C in urine", "setting": "[7]; single dose", "result": "31^b %"},
      {"measurement": "% of dose excreted as unchanged drug in feces", "setting": "[7]; single dose", "result": 53, "unit": "%"},
      {"measurement": "% of dose excreted as unchanged drug in the urine", "setting": "[7]; single-dose mass balance study of [14C] dolutegravir", "result": "<1^b %"},
      {"measurement": "AUCtau, Mean (CV %)", "setting": "[8]", "result": "53.6 (27%) mcg/h/mL"},
      {"measurement": "Cmax, Mean (CV %)", "setting": "[8]", "result": "3.67 (20%) mcg/mL"},
      {"measurement": "Ctrough, Mean (CV %)", "setting": "[8]", "result": "1.11 (46%) mcg/mL"},
      {"measurement": "pIC50", "setting": "CYP2A6", "result": "< 4.30"},
      {"measurement": "pIC50", "setting": "CYP2C8", "result": "< 4.30"},
      {"measurement": "pIC50", "setting": "CYP2C19", "result": "< 4.30"},
      {"measurement": "pIC50", "setting": "CYP2D6", "result": "< 4.30"},
      {"measurement": "pIC50", "setting": "CYP3A", "result": "< 4.30"},
      {"measurement": "pIC50", "setting": "UGT1A1", "result": "< 4.30"},
      {"measurement": "pIC50", "setting": "P-gp [9]", "result": "< 4.30"},
      {"measurement": "pIC50", "setting": "OCT1", "result": "< 4.30"},
      {"measurement": "pIC50", "setting": "[10]", "result": "< 4.30"},
      {"measurement": "Induction of CYP3A4", "setting": "CYP3A4", "result": "did not induce"},
      {"measurement": "pIC50", "setting": "renal OCT2", "result": 5.71},
      {"measurement": "pIC50", "setting": "OAT3", "result": 5.71},
      {"measurement": "Effect on plasma concentrations of tenofovir or para-amino hippurate, substrates of OAT1 and OAT3", "setting": "OAT1 and OAT3", "result": "did not alter"},
      {"measurement": "Substrate of UGT1A3", "setting": "UGT1A3", "result": "substrate"},
      {"measurement": "Substrate of P-gp", "setting": "P-gp [11]", "result": "substrate"},
      {"measurement": "Substrate of OATP1B3", "setting": "OATP1B3", "result": "not a substrate"},
      {"measurement": "pEC50", "setting": "[12]", "result": "8.67 to 10.70"},
      {"measurement": "pEC50", "setting": "HIV-2 clinical isolates", "result": "9.21 to 10.05"}
    ]}
  ]
}
